Tests used:
[1] = molecular target: GDP-bound HRAS wild-type protein (Homo sapiens, UniProt P01112); assay: Binding to HRAS by surface plasmon resonance (SPR), Single Cycle Kinetics; conditions: KD ratio, GDP-bound HRAS wild-type vs GDP-bound KRAS wild-type, SPR
[2] = molecular target: GDP-bound NRAS wild-type protein (Homo sapiens, UniProt P01111); assay: Binding to NRAS by surface plasmon resonance (SPR), Single Cycle Kinetics; conditions: KD ratio, GDP-bound NRAS wild-type vs GDP-bound KRAS wild-type, SPR
Sequence of GDP-bound NRAS wild-type protein (P01111 whole entry): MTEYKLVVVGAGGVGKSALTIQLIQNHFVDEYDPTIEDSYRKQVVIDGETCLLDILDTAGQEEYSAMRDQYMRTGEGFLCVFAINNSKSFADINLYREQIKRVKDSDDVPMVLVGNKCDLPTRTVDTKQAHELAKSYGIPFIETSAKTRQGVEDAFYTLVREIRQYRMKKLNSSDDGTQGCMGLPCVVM

Sequence of GDP-bound HRAS wild-type protein (P01112 whole entry): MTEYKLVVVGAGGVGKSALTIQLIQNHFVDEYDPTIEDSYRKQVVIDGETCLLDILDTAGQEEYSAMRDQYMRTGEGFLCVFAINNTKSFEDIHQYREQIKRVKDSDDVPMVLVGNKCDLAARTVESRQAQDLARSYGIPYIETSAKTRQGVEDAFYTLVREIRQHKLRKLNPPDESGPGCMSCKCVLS

Row | Structure (SMILES) | HRAS/KRAS (ratio of KD value with respect to HRAS to KD value with respect to KRAS) [1] | NRAS/KRAS (ratio of KD value with respect to NRAS to KD value with respect to KRAS) [2]
1 | CCO[C@@H]1C[C@H]2C(=O)NC3(CCC3)C(=O)N(C)[C@@H](C3CCCC3)C(=O)N(C)[C@H](C(=O)N3CCOCC3)CC(=O)N(C)[C@@H](CC(C)C)C(=O)N[C@@H]([C@@H](C)CC)C(=O)N(C)CC(=O)N(C)[C@H]3CCCCCN(C3=O)[C@@H](Cc3ccc(F)c(F)c3)C(=O)N(C)CC(=O)N[C@@H](CCc3cc(F)c(C(F)(F)F)c(F)c3)C(=O)N2C1 [PP0917] | B (a compound having 3 or more and less than 10 is denoted as B) | B (a compound having 3 or more and less than 10 is denoted as B)
2 | CCO[C@@H]1C[C@H]2C(=O)NC3(CCC3)C(=O)N(C)[C@@H](C3CCCC3)C(=O)N(C)[C@H](C(=O)N3CCOCC3)CC(=O)N(C)[C@@H](CC(C)C)C(=O)N[C@@H]([C@@H](C)CC)C(=O)N(C)CC(=O)N(C)[C@H]3CCCCCN(C3=O)[C@@H](Cc3ccc(F)cc3Cl)C(=O)N(C)CC(=O)N[C@@H](CCc3cc(F)c(C(F)(F)F)c(F)c3)C(=O)N2C1 [PP0918] | B (a compound having 3 or more and less than 10 is denoted as B) | B (a compound having 3 or more and less than 10 is denoted as B)
3 | CCO[C@@H]1C[C@H]2C(=O)NC3(CCC3)C(=O)N(C)[C@@H](C3CCCC3)C(=O)N(C)[C@H](C(=O)N3CCOCC3)CC(=O)N(C)[C@@H](CC(C)C)C(=O)N[C@@H]([C@@H](C)CC)C(=O)N(C)CC(=O)N(C)[C@H]3CCCCCN(C3=O)[C@@H](Cc3ccc(F)c(Cl)c3)C(=O)N(C)CC(=O)N[C@@H](CCc3cc(F)c(C(F)(F)F)c(F)c3)C(=O)N2C1 [PP0919] | B (a compound having 3 or more and less than 10 is denoted as B) | B (a compound having 3 or more and less than 10 is denoted as B)
4 | CCO[C@@H]1C[C@H]2C(=O)NC3(CCC3)C(=O)N(C)[C@@H](C3CCCC3)C(=O)N(C)[C@H](C(=O)N3CCOCC3)CC(=O)N(C)[C@@H](CC(C)C)C(=O)N[C@@H]([C@@H](C)CC)C(=O)N(C)CC(=O)N(C)[C@H]3CCCCCN(C3=O)[C@@H](Cc3ccc4sccc4c3)C(=O)N(C)CC(=O)N[C@@H](CCc3cc(F)c(C(F)(F)F)c(F)c3)C(=O)N2C1 [PP0920] | B (a compound having 3 or more and less than 10 is denoted as B) | B (a compound having 3 or more and less than 10 is denoted as B)
5 | CCO[C@@H]1C[C@H]2C(=O)NC3(CCC3)C(=O)N(C)[C@@H](C3CCCC3)C(=O)N(C)[C@H](C(=O)N3CCOCC3)CC(=O)N(C)[C@@H](CC(C)C)C(=O)N[C@@H]([C@@H](C)CC)C(=O)N(C)CC(=O)N(C)[C@H]3CCCCCN(C3=O)[C@@H](Cc3ccc4ccsc4c3)C(=O)N(C)CC(=O)N[C@@H](CCc3cc(F)c(C(F)(F)F)c(F)c3)C(=O)N2C1 [PP0921] | B (a compound having 3 or more and less than 10 is denoted as B) | B (a compound having 3 or more and less than 10 is denoted as B)
6 | CCO[C@@H]1C[C@H]2C(=O)NC3(CCC3)C(=O)N(C)[C@@H](C3CCCC3)C(=O)N(C)[C@H](C(=O)N3CCOCC3)CC(=O)N(C)[C@@H](CC(C)C)C(=O)N[C@@H]([C@@H](C)CC)C(=O)N(C)CC(=O)N(C)[C@H]3CCCCCN(C3=O)[C@@H](Cc3ccc(F)c(C)c3)C(=O)N(C)CC(=O)N[C@@H](CCc3cc(F)c(C(F)(F)F)c(F)c3)C(=O)N2C1 [PP0922] | B (a compound having 3 or more and less than 10 is denoted as B) | B (a compound having 3 or more and less than 10 is denoted as B)
7 | CCO[C@@H]1C[C@H]2C(=O)NC3(CCC3)C(=O)N(C)[C@@H](C3CCCC3)C(=O)N(C)[C@H](C(=O)N3CCOCC3)CC(=O)N(C)[C@@H](CC(C)C)C(=O)N[C@@H]([C@@H](C)CC)C(=O)N(C)CC(=O)N(C)[C@H]3CCCCCN(C3=O)[C@@H](Cc3nccs3)C(=O)N(C)CC(=O)N[C@@H](CCc3cc(F)c(C(F)(F)F)c(F)c3)C(=O)N2C1 [PP0923] | B (a compound having 3 or more and less than 10 is denoted as B) | B (a compound having 3 or more and less than 10 is denoted as B)
8 | CCO[C@@H]1C[C@H]2C(=O)NC3(CCC3)C(=O)N(C)[C@@H](C3CCCC3)C(=O)N(C)[C@H](C(=O)N3CCOCC3)CC(=O)N(C)[C@@H](CC(C)C)C(=O)N[C@@H]([C@@H](C)CC)C(=O)N(C)CC(=O)N(C)[C@H]3CCCCCN(C3=O)[C@@H](Cc3ccc(F)cc3OC)C(=O)N(C)CC(=O)N[C@@H](CCc3cc(F)c(C(F)(F)F)c(F)c3)C(=O)N2C1 [PP0924] | B (a compound having 3 or more and less than 10 is denoted as B) | B (a compound having 3 or more and less than 10 is denoted as B)
9 | CCO[C@@H]1C[C@H]2C(=O)NC3(CCC3)C(=O)N(C)[C@@H](C3CCCC3)C(=O)N(C)[C@H](C(=O)N3CCOCC3)CC(=O)N(C)[C@@H](Cc3ccccc3F)C(=O)N[C@@H]([C@@H](C)CC)C(=O)N(C)CC(=O)N(C)[C@H]3CCCCCN(C3=O)[C@@H](Cc3ccc(C(F)(F)F)cc3)C(=O)N(C)CC(=O)N[C@@H](CCc3cc(F)c(C(F)(F)F)c(F)c3)C(=O)N2C1 [PP0926] | B (a compound having 3 or more and less than 10 is denoted as B) | B (a compound having 3 or more and less than 10 is denoted as B)
10 | CCO[C@@H]1C[C@H]2C(=O)NC3(CCC3)C(=O)N(C)[C@@H](C3CCCC3)C(=O)N(C)[C@H](C(=O)N3CCOCC3)CC(=O)N(C)[C@@H](Cc3ccc(F)c(F)c3)C(=O)N[C@@H]([C@@H](C)CC)C(=O)N(C)CC(=O)N(C)[C@H]3CCCCCN(C3=O)[C@@H](Cc3ccc(C(F)(F)F)cc3)C(=O)N(C)CC(=O)N[C@@H](CCc3cc(F)c(C(F)(F)F)c(F)c3)C(=O)N2C1 [PP0928] | B (a compound having 3 or more and less than 10 is denoted as B) | A (a compound having 10 or more and less than 20 is denoted as A)
11 | CCO[C@@H]1C[C@H]2C(=O)NC3(CCC3)C(=O)N(C)[C@@H](C3CCCC3)C(=O)N(C)[C@H](C(=O)N3CCOCC3)CC(=O)N(C)[C@@H](Cc3ccccc3Cl)C(=O)N[C@@H]([C@@H](C)CC)C(=O)N(C)CC(=O)N(C)[C@H]3CCCCCN(C3=O)[C@@H](Cc3ccc(C(F)(F)F)cc3)C(=O)N(C)CC(=O)N[C@@H](CCc3cc(F)c(C(F)(F)F)c(F)c3)C(=O)N2C1 [PP0929] | B (a compound having 3 or more and less than 10 is denoted as B) | A (a compound having 10 or more and less than 20 is denoted as A)
12 | CCO[C@@H]1C[C@H]2C(=O)NC3(CCC3)C(=O)N(C)[C@@H](C3CCCC3)C(=O)N(C)[C@H](C(=O)N3CCOCC3)CC(=O)N(C)[C@@H](Cc3ccccc3C)C(=O)N[C@@H]([C@@H](C)CC)C(=O)N(C)CC(=O)N(C)[C@H]3CCCCCN(C3=O)[C@@H](Cc3ccc(C(F)(F)F)cc3)C(=O)N(C)CC(=O)N[C@@H](CCc3cc(F)c(C(F)(F)F)c(F)c3)C(=O)N2C1 [PP0931] | B (a compound having 3 or more and less than 10 is denoted as B) | A (a compound having 10 or more and less than 20 is denoted as A)
13 | CCO[C@@H]1C[C@H]2C(=O)NC3(CCC3)C(=O)N(C)[C@@H](C3CCCC3)C(=O)N(C)[C@H](C(=O)N3CCOCC3)CC(=O)N(C)[C@@H](Cc3cccc(C)c3)C(=O)N[C@@H]([C@@H](C)CC)C(=O)N(C)CC(=O)N(C)[C@H]3CCCCCN(C3=O)[C@@H](Cc3ccc(C(F)(F)F)cc3)C(=O)N(C)CC(=O)N[C@@H](CCc3cc(F)c(C(F)(F)F)c(F)c3)C(=O)N2C1 [PP0932] | B (a compound having 3 or more and less than 10 is denoted as B) | B (a compound having 3 or more and less than 10 is denoted as B)
14 | CCO[C@@H]1C[C@H]2C(=O)NC3(CCC3)C(=O)N(C)[C@@H](C3CCCC3)C(=O)N(C)[C@H](C(=O)N3CCOCC3)CC(=O)N(C)[C@@H](Cc3ccc(C)cc3)C(=O)N[C@@H]([C@@H](C)CC)C(=O)N(C)CC(=O)N(C)[C@H]3CCCCCN(C3=O)[C@@H](Cc3ccc(C(F)(F)F)cc3)C(=O)N(C)CC(=O)N[C@@H](CCc3cc(F)c(C(F)(F)F)c(F)c3)C(=O)N2C1 [PP0933] | B (a compound having 3 or more and less than 10 is denoted as B) | A (a compound having 10 or more and less than 20 is denoted as A)
15 | CCO[C@@H]1C[C@H]2C(=O)NC3(CCC3)C(=O)N(C)[C@@H](C3CCCC3)C(=O)N(C)[C@H](C(=O)N(C)C)CC(=O)N(C)[C@@H](Cc3ccccc3F)C(=O)N[C@@H]([C@@H](C)CC)C(=O)N(C)CC(=O)N(C)[C@H]3CCCCCN(C3=O)[C@@H](Cc3ccc(C(F)(F)F)cc3)C(=O)N(C)CC(=O)N[C@@H](CCc3cc(F)c(C(F)(F)F)c(F)c3)C(=O)N2C1 [PP0934] | B (a compound having 3 or more and less than 10 is denoted as B) | B (a compound having 3 or more and less than 10 is denoted as B)
16 | CCO[C@@H]1C[C@H]2C(=O)NC3(CCC3)C(=O)N(C)[C@@H](C3CCCC3)C(=O)N(C)[C@H](C(=O)N(C)C)CC(=O)N(C)[C@@H](Cc3cccc(F)c3)C(=O)N[C@@H]([C@@H](C)CC)C(=O)N(C)CC(=O)N(C)[C@H]3CCCCCN(C3=O)[C@@H](Cc3ccc(C(F)(F)F)cc3)C(=O)N(C)CC(=O)N[C@@H](CCc3cc(F)c(C(F)(F)F)c(F)c3)C(=O)N2C1 [PP0935] | B (a compound having 3 or more and less than 10 is denoted as B) | B (a compound having 3 or more and less than 10 is denoted as B)

From patent US20250230193A1, “CYCLIC COMPOUND HAVING SELECTIVE KRAS INHIBITORY EFFECT ON HRAS AND NRAS” (CHUGAI SEIYAKU KABUSHIKI KAISHA, priority 2022, published 2025)
